Results reported in US12453708B2, “Aminonaphthoquinone compounds for treatment and/or prevention of fibrosis diseases” (CALGENT BIOTECHNOLOGY CO., LTD., priority 2015, dated 2025).

Experiments:
[1] = system: ET-1-induced CTGF expression in WI-38 cells; test: ET-1-induced CTGF expression in WI-38 cells (Western blot); format: cell-based, human; conditions: WI-38 lung fibroblasts, 0.3, 1, 3 or 10 μM for 30 min before and during 2 h ET-1 (10 nM)
Experimental: FIGS. 2 (A) and (B) show the effect of L056 on ET-1-induced CTGF expression in WI-38 cells. WI-38 lung fibroblasts were incubated with different concentrations of L056 (0.3, 1, 3 or 10 μM) for 30 min before and during incubation for 2 h with ET-1 (10 nM). […] (A), Western blot plot; (B), Quantitative assay of Western blot. WI-38 cells, a normal human embryonic lung fibroblast cell line, were obtained from American Type Culture Collection (Manassas, VA). Cells were grown in MEM nutrient mixture, containing 10% FCS, 2 mM L-glutamine, 0.1 mM NEAA, 1 mM sodium pyruvate, 50 U/ml penicillin G, and 100 µg/ml streptomycin, in a humidified 37° C. incubator with 5% CO2 Cells were used between passages 18 and 30 for all experiments. After reaching confluence, cells were seeded onto 6-cm dishes for immunoblotting. Western blot analyses were performed as described previously (Chen B C, Chang Y S, Kang J C, Hsu M J, Sheu J R, Chen T L, et al. Peptidoglycan induces nuclear factor-kappaB activation and cyclooxygenase-2 expression via Ras, Raf-1, and ERK in RAW 264.7 macrophages. J Biol Chem 2004; 279:20889-97). Briefly, WI-38 lung fibroblasts were cultured in 6-cm dishes. […] The immunoreactivity was detected using enhanced chemiluminescence (ECL) following the manufacturer's instructions. Quantitative data were obtained using a computing densitometer with scientific imaging systems (Kodak, Rochester, NY). […]

WI-38 lung fibroblasts = test: Cell viability test (MTT-assay) in WI-38 cells; format: cell-based, human; conditions: 0.3, 1, 3 or 10 μM for 2 hours
Experimental: WI-38 cells, a normal human embryonic lung fibroblast cell line, were obtained from American Type Culture Collection (Manassas, VA). Cells were grown in MEM nutrient mixture, containing 10% FCS, 2 mM L-glutamine, 0.1 mM NEAA, 1 mM sodium pyruvate, 50 U/ml penicillin G, and 100 µg/ml streptomycin, in a humidified 37° C. incubator with 5% CO2 Cells were used between passages 18 and 30 for all experiments. After reaching confluence, cells were seeded onto 6-cm dishes for immunoblotting. WI-38 lung fibroblasts were incubated with different concentrations of MPTOL056 (0.3, 1, 3 or 10 μM) for 2 hours before MTT-assay.

[2] = system: BLM-induced lung fibrosis in mice; test: Bleomycin (BLM)-induced lung fibrosis mice model; format: in vivo, C57BL/6JNarl mice; conditions: for fibrosis score, Mean ± SEM: H&E histology day 39
Experimental: FIGS. 8 (A) and (B) show the effect of L056 effect on fibrosis score of BLM-induced lung fibrosis in mice. C57BL/6 mice (8 weeks) were treated with bleomycin (BLM, 0.05 U/50 μl) or PBS (50 μl) by endotracheal administration. […] On day 39, the mice were sacrificed and, the histologic analysis of lung tissue was performed by hematoxylin-eosin (H&E) staining (original magnification, x100). […] (A), Histology fibrosis score plot; (B), H&E staining plot.
FIG. 9 (A) to (D) show the inhibitory effects on pro-fibrogenic mediators, collagen, CTGF, fibronectin and […], respectively. (A), H&E staining plot for collagen; (B), H&E staining plot for CTGF; (C), H&E staining plot for fibronectin; (D), H&E staining plot for α-SMA.
C57BL/6JNarl mice (8 weeks) were treated with bleomycin (BLM, 0.05 U/50 μl) or PBS (50 μl) by endotracheal administration. […] On day 39, the mice were sacrificed, and the histologic analysis of lung tissue was performed by hematoxylin-eosin (H&E) staining (original magnification, x100).

[3] = BLM mice, 25 mg (mg/kg/day, q.d., oral, days 10 to 38)
[4] = BLM mice, 50 mg (mg/kg/day, q.d., oral, days 10 to 38)
[5] = BLM mice, 100 mg (mg/kg/day, q.d., oral, days 10 to 38)

Compound: O=C(Nc1ccncc1)c1ccc(CNC2=C(Cl)C(=O)c3ccccc3C2=O)cc1 [Example L056, 4-(((3-chloro-1,4-dioxo-1,4-dihydronaphthalen-2-yl)amino)methyl)-N-(pyridin-4-yl)benzamide]
- ET-1-induced CTGF production/expression [1]: significantly inhibited
- ET-1-induced CTGF production/expression ([1]; listed as MPTOL0560): inhibited
- cell viability (WI-38 lung fibroblasts): did not affect cell viability
- Efficacy % (reduction of fibrosis score) [2, 3]: 50.94%
- fibrosis score, Mean ± SEM [2, 3]: 3.27 ± 0.03
- Efficacy % (reduction of fibrosis score) [2, 4]: 83.90%
- fibrosis score, Mean ± SEM [2, 4]: 2.03 ± 0.21
- Efficacy % (reduction of fibrosis score) [2, 5]: 67.38%
- fibrosis score, Mean ± SEM [2, 5]: 2.65 ± 0.17
- efficacy in the inhibition compared with PBS control ([2]; BLM mice, FIG. 8(B)): significantly higher than the PBS control
- pro-fibrogenic mediators expression (collagen, CTGF, fibronectin, α-SMA) in lung ([2]; bleomycin-induced mice lung fibrosis model, FIG. 9): inhibited
- inhibition of BLM-induced lung fibrosis (in words) ([2]; mice, 25, 50, 100 mg/kg/day oral, FIG. 8(A)): inhibits BLM-induced lung fibrosis in a dose-dependent manner
